Holding throughout (type): biochemical
One assay addresses T1, recombinant human HSD1 (Homo sapiens, UniProt P14061).
T1 construct: made in house; host or cells: Sf9 insect cells
T1 sequence (P14061 1-328): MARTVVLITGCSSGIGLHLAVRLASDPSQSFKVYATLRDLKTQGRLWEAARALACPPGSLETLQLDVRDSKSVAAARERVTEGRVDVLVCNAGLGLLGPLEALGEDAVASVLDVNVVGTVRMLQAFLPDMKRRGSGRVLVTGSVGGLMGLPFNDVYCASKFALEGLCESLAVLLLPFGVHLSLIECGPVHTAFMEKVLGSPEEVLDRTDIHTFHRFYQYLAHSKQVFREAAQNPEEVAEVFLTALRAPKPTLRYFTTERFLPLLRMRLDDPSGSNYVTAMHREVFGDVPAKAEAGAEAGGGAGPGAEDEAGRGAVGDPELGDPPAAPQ
Description: HSD1 inhibition, HPLC assay of [3H]-E1 to [3H]-E2 conversion. On the procedure: The inhibition was determined by HPLC using recombinant human HSD1 and HSD2 proteins as described in a prior study. In short, recombinant human HSD1 and HSD2 were produced in Sf9-insect cells. […] After incubation, the reaction was stopped by addition of […] 10% trichloroacetic acid per sample. […] The ratio of [3H]-E1 converted to [3H]-E2 or vice versa determines the conversion percentage of the samples. Inhibition was measured in three concentrations (100 nM, 1, and 5 µM) in order to follow the progression of inhibition efficiencies. Inhibition efficiencies of the tested inhibitors were calculated by comparing the conversion percentages of the samples including inhibitors with those of conversion controls (without inhibitors).

The target of another assay is T2, MAO-B (Homo sapiens, UniProt P27338).
T2 construct: purchased Sigma-Aldrich (St. Louis, MO)
T2 sequence (P27338 1-520): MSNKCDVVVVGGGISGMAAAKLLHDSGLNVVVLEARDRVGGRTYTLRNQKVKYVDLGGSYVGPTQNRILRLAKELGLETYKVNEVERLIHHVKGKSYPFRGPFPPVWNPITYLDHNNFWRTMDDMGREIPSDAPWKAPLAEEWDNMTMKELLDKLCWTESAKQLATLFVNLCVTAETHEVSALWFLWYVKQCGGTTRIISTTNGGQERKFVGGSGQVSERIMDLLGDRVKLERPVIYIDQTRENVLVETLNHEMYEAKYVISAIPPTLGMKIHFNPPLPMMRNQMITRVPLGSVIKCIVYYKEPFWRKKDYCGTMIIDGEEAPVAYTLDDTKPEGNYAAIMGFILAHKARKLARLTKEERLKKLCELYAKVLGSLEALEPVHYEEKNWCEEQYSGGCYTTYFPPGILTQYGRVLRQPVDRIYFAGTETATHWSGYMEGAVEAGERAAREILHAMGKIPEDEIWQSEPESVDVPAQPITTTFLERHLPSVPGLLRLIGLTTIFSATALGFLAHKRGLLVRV
Put plainly: MAO-B inhibition, continuous spectrophotometric assay. As for the experimental part: The protocol of continuous spectrophotometric assay by Holt et al. was first used to determine the activity of the proteins. […] The protein was first incubated for 30 min at 37 °C in the chromogenic solution and then the substrate tyramine was introduced at 0.5 mM final plate concentration completing the assay volume. […] The assay should produce absorbance change of ∼0.35[23]. […] These protein concentrations were selected to be used to analyse the molecules 1–9. The analysis conditions followed the above-described assay protocol[23] and the activity of tested molecules was measured at 100 µM for MAO-A and at 10 µM for MAO-B. The analysis was performed as single point measurements and the signal was read by the same instrument at the expected assay maximum indicated by the activity measurements, at 30 min for MAO-A and at 2 h for MAO-B, respectively. […] The observed activity was calculated as inhibition percentage (Table 1).

Assay [1] has as its target T3, heterologously expressed human CYP1A2 enzyme (Homo sapiens, UniProt P05177).
T3 construct: purchased Corning Inc., Corning, NY
T3 sequence (P05177 1-516): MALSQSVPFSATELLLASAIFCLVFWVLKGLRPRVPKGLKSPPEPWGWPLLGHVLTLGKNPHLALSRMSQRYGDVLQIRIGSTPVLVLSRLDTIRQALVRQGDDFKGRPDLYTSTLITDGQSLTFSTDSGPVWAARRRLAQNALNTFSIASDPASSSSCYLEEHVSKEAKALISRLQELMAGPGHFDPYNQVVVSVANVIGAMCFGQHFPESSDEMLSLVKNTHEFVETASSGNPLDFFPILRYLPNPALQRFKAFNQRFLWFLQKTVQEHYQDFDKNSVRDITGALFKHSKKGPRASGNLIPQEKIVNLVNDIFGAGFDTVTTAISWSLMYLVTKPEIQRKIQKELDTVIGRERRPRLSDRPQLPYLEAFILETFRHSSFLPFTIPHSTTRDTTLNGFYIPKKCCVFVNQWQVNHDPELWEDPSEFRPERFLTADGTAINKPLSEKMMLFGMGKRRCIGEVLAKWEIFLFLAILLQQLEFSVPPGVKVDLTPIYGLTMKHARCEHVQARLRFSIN
Description: CYP1A2 inhibition. To be noted: read-out: CYP1A2 inhibition ∼ pIC50 (converted). On the procedure:
Inhibition of CYP1A2 activity was determined using commercial heterologously expressed human CYP1A2 enzyme (Corning Inc., Corning, NY) essentially as described previously.

Assay [2] has as its target T4, Aromatase (CYP19A1), human placental microsomes (Homo sapiens, UniProt P11511).
T4 construct: by using human placental microsomes; from tissue; host or cells: human placental microsomes
T4 sequence (P11511 1-503): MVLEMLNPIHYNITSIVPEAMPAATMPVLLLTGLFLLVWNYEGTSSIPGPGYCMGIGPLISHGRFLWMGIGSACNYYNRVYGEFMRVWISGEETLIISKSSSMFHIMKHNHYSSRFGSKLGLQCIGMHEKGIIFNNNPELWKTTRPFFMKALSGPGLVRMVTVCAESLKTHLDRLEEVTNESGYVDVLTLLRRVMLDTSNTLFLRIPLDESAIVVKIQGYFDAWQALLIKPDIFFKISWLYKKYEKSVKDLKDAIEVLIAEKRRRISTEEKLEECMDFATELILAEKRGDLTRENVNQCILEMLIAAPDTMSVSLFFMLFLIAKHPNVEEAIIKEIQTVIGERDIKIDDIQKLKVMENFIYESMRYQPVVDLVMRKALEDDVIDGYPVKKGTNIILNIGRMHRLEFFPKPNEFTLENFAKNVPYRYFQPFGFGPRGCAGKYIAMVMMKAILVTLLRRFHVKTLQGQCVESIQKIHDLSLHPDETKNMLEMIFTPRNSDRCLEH
Description: Aromatase activity, [3H]-H2O release from [3H]-androstenedione. To be noted: 50 nM [3H]-androstenedione; inhibitor 60–1000 nM; read-out: Aromatase inhibition ∼ pIC50 (converted). On the procedure: Aromatase (CYP19A1) activity was measured as described previously[22] by using human placental microsomes and 50 nM [3H]-androstenedione as a substrate and inhibitor concentrations in the range of 60–1000 nM. Aromatase activities were measured as released [3H]-H2O in Optiphase Hisafe 2 scintillation liquid (Perkin Elmer, Waltham, MA) with a Wallac 1450 MicroBeta Trilux scintillation counter (Perkin Elmer, Waltham, MA). As a positive control for aromatase inhibition, 1 µM finrozole (generous gift from Olavi Pelkonen, University of Oulu, Finland) was used.

In the next assay the target is T5, recombinant human HSD2 (Homo sapiens, UniProt P37059).
T5 construct: made in house; host or cells: Sf9 insect cells
T5 sequence (P37059 1-387): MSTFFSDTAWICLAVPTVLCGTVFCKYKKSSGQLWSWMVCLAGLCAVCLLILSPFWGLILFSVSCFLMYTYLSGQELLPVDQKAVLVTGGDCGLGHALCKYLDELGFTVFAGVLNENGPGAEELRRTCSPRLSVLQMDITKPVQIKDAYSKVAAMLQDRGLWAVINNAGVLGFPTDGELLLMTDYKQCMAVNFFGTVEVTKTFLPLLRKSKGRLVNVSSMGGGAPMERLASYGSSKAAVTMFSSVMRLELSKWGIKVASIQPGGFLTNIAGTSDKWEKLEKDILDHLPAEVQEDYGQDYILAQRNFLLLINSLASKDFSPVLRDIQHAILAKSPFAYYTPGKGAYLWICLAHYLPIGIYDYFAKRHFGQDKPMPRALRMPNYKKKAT
Put plainly: HSD2 inhibition, HPLC assay of [3H]-E2 to [3H]-E1 conversion. On the procedure: The inhibition was determined by HPLC using recombinant human HSD1 and HSD2 proteins as described in a prior study. In short, recombinant human HSD1 and HSD2 were produced in Sf9-insect cells. […]. After incubation, the reaction was stopped by addition of […] 10% trichloroacetic acid per sample. After incubation the substrate and the product of enzymatic conversion [3H]-E1 and [3H]-E2 were separated and quantified by HPLC (Alliance 2790, Waters, Milford, MA) connected to an online counter (Packard Flow Scintillation Analyser; Perkin Elmer Inc., Waltham, […]). The ratio of [3H]-E1 converted to [3H]-E2 or vice versa determines the conversion percentage of the samples. Inhibition was measured in three concentrations (100 nM, 1, and 5 µM) in order to follow the progression of inhibition efficiencies. Inhibition efficiencies of the tested inhibitors were calculated by comparing the conversion percentages of the samples including inhibitors with those of conversion controls (without inhibitors).

In general, inhibition refers to the drop in the measured response relative to a control, in per cent. On to `O=c1oc2ccccc2cc1-n1ccnc1` [Compound 10, 3–(1H-imidazol-1-yl)-2H-chromen-2-one], for which, at recombinant human HSD1, the “HSD1 inhibition (in words)” value is “blocking neither HSD1 nor MAO-B”. Further, the inhibition at 0.1 µM on recombinant human HSD1 (100 nM, average of two measurements, except for compounds 8 and 9, read-out: HSD1 inhibition at 100 nM) was 1%. Further, the inhibition at 1 µM on recombinant human HSD1 (1 µM, average of three measurements, except for compounds 8 and 9, read-out: HSD1 inhibition at 1 µM) came to 1%. The IC50 at recombinant human HSD1 (estimated from three measurements at 1 µM, average ± standard error, read-out: HSD1 inhibition ∼ pIC50 (converted)) was over 5010 nM; in assay [1], 115 nM; in assay [2], 77.6 nM. For the same molecule, the “MAO-B inhibition (in words)” value at MAO-B was “blocking neither HSD1 nor MAO-B”. Further, the inhibition at 10 µM on MAO-B (10 µM, single point, read at 2 h, read-out: MAO-B inhibition at 10 µM) is 11%.

Turning to `O=c1c(Oc2ccc(Cl)cc2)coc2cc(O)cc(O)c12` [HM2001, 3–(4-Chlorophenoxy)-5,7-dihydroxychromen-4-one, reference compound], the inhibition at 0.1 µM on recombinant human HSD2 (100 nM, control) was found to be 62.3%. For the same molecule, on recombinant human HSD2 (read-out: HSD2 inhibition at 1 µM), the inhibition at 1 µM is 100%.

The record behind these values is publication PMC6010071, “Blocking oestradiol synthesis pathways with potent and selective coumarin derivatives” (Journal of Enzyme Inhibition and Medicinal Chemistry, 2018).
